Source: patent publication US9902703B2, “Somatostatin modulators and uses thereof” (Crinetics Pharmaceuticals, Inc., priority 2015, dated 2018)

Target: T1, human somatostatin receptor subtype 2 (Homo sapiens, UniProt P30874)
T1 construct: expressed in transfected cells; host or cells: CHO (Chinese hamster ovary) cells, G-418 selected
Test: cAMP assay (functional assay for SSTR2 agonists)
Assay type: cell-based
Conditions: CHO cells expressing human SSTR2; intracellular cAMP with forskolin, HTRF; read-out: SSTR2a EC50
Procedure, shortened: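 CHO cells expressing human SSTR2 were treated with compound for 15 min at 37° C in buffer with forskolin, 0.2 mM IBMX and 0.1% BSA. Intracellular cAMP was read by HTRF after 1-24 h lysis at room temperature, and EC50 came from cAMP versus compound concentration curves.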

T1 sequence (P30874 whole entry): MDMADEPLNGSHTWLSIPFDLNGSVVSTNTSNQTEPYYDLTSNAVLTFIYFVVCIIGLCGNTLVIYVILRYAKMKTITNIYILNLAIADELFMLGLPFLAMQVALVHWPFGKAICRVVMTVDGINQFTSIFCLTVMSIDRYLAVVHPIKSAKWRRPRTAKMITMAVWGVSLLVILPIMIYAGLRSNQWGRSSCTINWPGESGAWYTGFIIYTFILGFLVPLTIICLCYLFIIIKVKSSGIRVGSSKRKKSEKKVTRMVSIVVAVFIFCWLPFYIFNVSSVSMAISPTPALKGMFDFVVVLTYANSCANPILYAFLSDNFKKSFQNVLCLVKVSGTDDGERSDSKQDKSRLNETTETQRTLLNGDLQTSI

EC50 [nM]	SMILES
< 100	CC1=Nc2ccc(-c3cc(O)ccc3Cl)cc2C(C(=O)NC[C@@H]2CCCN2)N1c1cc(C)cc(Cl)c1 (stereo partly drawn) [Compound 1-28, 6-(2-chloro-5-hydroxyphenyl)-3-(3-chloro-5-methylphenyl)-2-methyl-N-[(2S)-pyrrolidin-2-ylmethyl]-3,4-dihydroquinazoline-4-carboxamide]
100 to 1000	Cc1cc(Cl)cc(N2C=Nc3cc(C)c(-c4cccc(O)c4C#N)cc3C2C(=O)N(C)C[C@@H]2CCCN2)c1 (stereo partly drawn) [Compound 2-31, 3-(3-chloro-5-methylphenyl)-6-(2-cyano-3-hydroxyphenyl)-N,7-dimethyl-N-[(2S)-pyrrolidin-2-ylmethyl]-3,4-dihydroquinazoline-4-carboxamide]
< 100	COc1ccc(F)c(-c2cc3c(cc2C)N=CN(c2cc(C)cc(Cl)c2)C3C(=O)N(C)C[C@@H]2CCCN2)c1 (stereo partly drawn) [Compound 2-5, 3-(3-chloro-5-methylphenyl)-6-(2-fluoro-5-methoxyphenyl)-N,7-dimethyl-N-[(2S)-pyrrolidin-2-ylmethyl]-3,4-dihydroquinazoline-4-carboxamide]
100 to 1000	Cc1cc(Cl)cc(N2C=Nc3cc(C)c(-c4cccnc4)cc3C2C(=O)N(C)C[C@@H]2CCCN2)c1 (stereo partly drawn) [Compound 2-2, 3-(3-chloro-5-methylphenyl)-N,7-dimethyl-6-(pyridin-3-yl)-N-[(2S)-pyrrolidin-2-ylmethyl]-3,4-dihydroquinazoline-4-carboxamide]
< 100	Cc1cc(Cl)cc(N2C=Nc3cc(C)c(-c4cc(O)ccc4C#N)cc3C2C(=O)N(C)C[C@@H]2CCCN2)c1 (stereo partly drawn) [Compound 1-21, 3-(3-chloro-5-methylphenyl)-6-(2-cyano-5-hydroxyphenyl)-N,7-dimethyl-N-[(2S)-pyrrolidin-2-ylmethyl]-3,4-dihydroquinazoline-4-carboxamide]
< 100	Cc1cc(C#N)cc(-c2cc3c(cc2C)N=CN(c2cc(C)cc(Cl)c2)C3C(=O)N(C)C[C@@H]2CCCN2)c1 (stereo partly drawn) [Compound 1-39, 3-(3-chloro-5-methylphenyl)-6-(3-cyano-5-methylphenyl)-N,7-dimethyl-N-[(2S)-pyrrolidin-2-ylmethyl]-3,4-dihydroquinazoline-4-carboxamide]
< 100	Cc1cc(Cl)cc(N2C=Nc3cc(C)c(-c4cccc(C(F)(F)F)c4)cc3C2C(=O)N(C)C[C@@H]2CCCN2)c1 (stereo partly drawn) [Compound 1-43, 3-(3-chloro-5-methylphenyl)-N,7-dimethyl-N-[(2S)-pyrrolidin-2-ylmethyl]-6-[3-(trifluoromethyl)phenyl]-3,4-dihydroquinazoline-4-carboxamide]
< 100	Cc1cc(Cl)cc(N2C=Nc3cc(C)c(-c4cccc(O)c4)cc3C2C(=O)N(C)C[C@@H]2C[C@@H](F)CN2)c1 (stereo partly drawn) [Compound 1-56, 3-(3-chloro-5-methylphenyl)-N-{[(2S,4R)-4-fluoropyrrolidin-2-yl]methyl}-6-(3-hydroxyphenyl)-N,7-dimethyl-3,4-dihydroquinazoline-4-carboxamide]
< 100	Cc1cc(F)cc(N2C=Nc3cc(C)c(-c4cc(O)ccc4Cl)cc3C2C(=O)N(C)C[C@@H]2CCCN2)c1 (stereo partly drawn) [Compound 1-26, 6-(2-chloro-5-hydroxyphenyl)-3-(3-fluoro-5-methylphenyl)-N,7-dimethyl-N-[(2S)-pyrrolidin-2-ylmethyl]-3,4-dihydroquinazoline-4-carboxamide]
< 100	Cc1cc(Cl)cc(N2C=Nc3cc(C)c(-c4cc(F)cc(C(N)=O)c4)cc3C2C(=O)N(C)C[C@@H]2CCCN2)c1 (single isomer, unassigned) [Compound 3-1]
< 100	Cc1cc(Cl)cc(N2C=Nc3cc(C)c(-c4cccc(-c5nnn[nH]5)c4)cc3C2C(=O)N(C)C[C@@H]2CCCN2)c1 (stereo partly drawn) [Compound 1-47, 3-(3-chloro-5-methylphenyl)-N,7-dimethyl-N-[(2S)-pyrrolidin-2-ylmethyl]-6-[3-(1H-1,2,3,4-tetrazol-5-yl)phenyl]-3,4-dihydroquinazoline-4-carboxamide]
< 100	COc1cc(F)cc(N2C=Nc3cc(C)c(-c4cc(O)ccc4F)cc3C2C(=O)N(C)C[C@@H]2CCCN2)c1 (stereo partly drawn) [Compound 1-22, 6-(2-fluoro-5-hydroxyphenyl)-3-(3-fluoro-5-methoxyphenyl)-N,7-dimethyl-N-[(2S)-pyrrolidin-2-ylmethyl]-3,4-dihydroquinazoline-4-carboxamide]
< 100	Cc1cc(F)cc(N2C=Nc3cc(C)c(-c4cc(O)cc(C#N)c4)cc3C2C(=O)N(C)C[C@@H]2CCCN2)c1 (stereo partly drawn) [Compound 1-54, 6-(3-cyano-5-hydroxyphenyl)-3-(3-fluoro-5-methylphenyl)-N,7-dimethyl-N-[(2S)-pyrrolidin-2-ylmethyl]-3,4-dihydroquinazoline-4-carboxamide]
< 100	Cc1cc(Cl)cc(N2C=Nc3cc(C)c(-c4ccc(F)cc4C)cc3C2C(=O)N(C)C[C@@H]2CCCN2)c1 (stereo partly drawn) [Compound 2-8, 3-(3-chloro-5-methylphenyl)-6-(4-fluoro-2-methylphenyl)-N,7-dimethyl-N-[(2S)-pyrrolidin-2-ylmethyl]-3,4-dihydroquinazoline-4-carboxamide]
< 100	COc1c(C#N)cccc1-c1cc2c(cc1C)N=CN(c1cc(C)cc(Cl)c1)C2C(=O)N(C)C[C@@H]1CCCN1 (stereo partly drawn) [Compound 2-28, 3-(3-chloro-5-methylphenyl)-6-(3-cyano-2-methoxyphenyl)-N,7-dimethyl-N-[(2S)-pyrrolidin-2-ylmethyl]-3,4-dihydroquinazoline-4-carboxamide]
< 100	COc1cc(F)cc(N2C=Nc3cc(C)c(-c4cc(O)ccc4F)cc3C2C(=O)N(C)C[C@@H]2CCCN2C)c1 (stereo partly drawn) [Compound 1-52, 6-(2-fluoro-5-hydroxyphenyl)-3-(3-fluoro-5-methoxyphenyl)-N,7-dimethyl-N-{[(2S)-1-methylpyrrolidin-2-yl]methyl}-3,4-dihydroquinazoline-4-carboxamide]
< 100	CC[C@H](N)CN(C)C(=O)C1c2cc(-c3cc(O)ccc3Cl)c(C)cc2N=CN1c1cc(C)cc(C)c1 (stereo partly drawn) [Compound 1-16, N-[(2S)-2-aminobutyl]-6-(2-chloro-5-hydroxyphenyl)-3-(3,5-dimethylphenyl)-N,7-dimethyl-3,4-dihydroquinazoline-4-carboxamide]
